Where a SMILES comes first, the peptide text is derived from it. Bridges are numbered along the chain shown (N, C = ends).
Molecular target: T1, Kv4.3 (Rattus norvegicus, UniProt Q62897)
T1 construct: expressed in transfected cells; host or cells: HEK293t
T1 sequence (Q62897 1-655): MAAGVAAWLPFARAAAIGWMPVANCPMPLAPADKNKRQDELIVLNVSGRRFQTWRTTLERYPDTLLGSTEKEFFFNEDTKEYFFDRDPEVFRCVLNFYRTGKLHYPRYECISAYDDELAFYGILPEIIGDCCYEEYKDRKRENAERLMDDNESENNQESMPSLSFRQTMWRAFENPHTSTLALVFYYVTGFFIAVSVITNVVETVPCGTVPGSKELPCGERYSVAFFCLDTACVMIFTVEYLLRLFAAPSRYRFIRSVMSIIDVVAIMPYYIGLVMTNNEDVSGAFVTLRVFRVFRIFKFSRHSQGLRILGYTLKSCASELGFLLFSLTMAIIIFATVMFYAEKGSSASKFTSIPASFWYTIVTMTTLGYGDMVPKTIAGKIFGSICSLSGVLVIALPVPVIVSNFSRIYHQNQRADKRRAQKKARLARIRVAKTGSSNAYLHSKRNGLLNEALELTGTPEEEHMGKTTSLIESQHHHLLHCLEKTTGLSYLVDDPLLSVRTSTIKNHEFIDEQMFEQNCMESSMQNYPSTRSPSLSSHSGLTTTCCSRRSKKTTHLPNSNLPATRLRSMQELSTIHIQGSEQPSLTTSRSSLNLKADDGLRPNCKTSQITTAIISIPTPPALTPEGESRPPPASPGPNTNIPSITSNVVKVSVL
Test: microelectrode voltage-clamp, Xenopus laevis oocytes, Kv4.3
Format: cell-based
Conditions: +20 mV from -90 mV, n = 5, read-out: inhibition of Kv4.3 current
Text: Rat cDNA genes encoding Kv4.2 (Accession: NM_031730.2) and Kv4.3 (Accession: AB003587.1) were subcloned to vector pcDNA3.1. In addition, human cDNA genes encoding Nav1.7 (Accession: DQ857292.1) and Nav1.5 (Accession: AB158469.2) were subcloned to vectors pcDNA3.1-mod and pcDNA3.1, separately. Then, Kv4.2, Kv4.3, Nav1.5 and Nav1.7 constructs were transiently transfected into the human embryonic kidney 293t (HEK293t) cells using lipofectamine 2000 (Invitrogen, USA) in accordance with manufacturer protocols. Thereafter, HEK293 cells were inoculated within Dulbecco’s modified Eagle’s medium (DMEM) containing 10% fetal bovine serum (FBS) at 5% CO2 and 37°C. The Kv4.3 channel and the Kv4.2 counterpart were then transfected in the absence of β subunit. Subsequently, cells were incubated with a DNA-lipofectamine mixture (one reporter plasmid for green fluorescence protein and channel constructs) for 4-6 h, and were washed with the fresh medium.
Briefly, plasmids were linearized, and transcription was carried out according to the standardized protocol. Afterwards, the capped cRNAs that encoded the related ion channels were prepared. […]

## CC(C)C[C@@H]1NC(=O)[C@H](CCCCN)NC(=O)[C@H](Cc2ccc(O)cc2)NC(=O)[C@@H]2CSSC[C@@H]3NC(=O)[C@H](Cc4ccc(O)cc4)NC(=O)[C@H](Cc4ccccc4)NC(=O)CNC(=O)[C@H](C)NC(=O)[C@H](CSSC[C@H](NC(=O)[C@@H](N)CC(C)C)C(=O)N[C@@H](CO)C(=O)N[C@@H](CCCNC(=N)N)C(=O)N[C@@H](CCC(=O)O)C(=O)NCC(=O)N[C@@H](CCC(=O)O)C(=O)N[C@@H](Cc4ccccc4)C(=O)N2)NC(=O)[C@H](CSSC[C@@H](C(=O)N[C@@H](Cc2ccc(O)cc2)C(=O)N[C@@H](CCCNC(=N)N)C(=O)N[C@@H](CC(N)=O)C(=O)O)NC(=O)[C@H](Cc2c[nH]cn2)NC(=O)[C@H](CC(C)C)NC(=O)[C@H](C(C)C)NC(=O)[C@H](Cc2ccccc2)NC(=O)[C@H](C)NC(=O)[C@H](CCCCN)NC3=O)NC(=O)[C@H](CCCCN)NC(=O)[C@H](CCCNC(=N)N)NC1=O [JZTX-X, Jingzhaotoxin-X] (H-LCSREGEFCYKLRKCCAGFYCKAFVLHCYRN-OH; disulfide 2-16, 9-21, 15-28; N-terminus assumed)
  inhibition at 1 µM: 72.4 ± 4.8%
